From paper PMC8720286 (Chemical biology & drug design, 2020)
Values after ≈ are worked out from the molar mass of the structure shown.

How the values were obtained:
Experiment in all cases: microbe, parasite or virus in culture
Mtb KZN494/MDR = format: cell-based, Mycobacterium tuberculosis; conditions: Mycobacterium tuberculosis, KZN494/MDR, read-out: Mtb MIC KZN494/MDR
Mtb V2475/MDR = format: cell-based; conditions: Mycobacterium tuberculosis, read-out: Mtb MIC V2475/MDR
Mtb R506/XDR = format: cell-based; conditions: Mycobacterium tuberculosis, read-out: Mtb MIC R506/XDR
Mtb TF274/XDR = format: cell-based; conditions: Mycobacterium tuberculosis, read-out: Mtb MIC TF274/XDR

SMILES	MIC (Mtb KZN494/MDR)	MIC (Mtb V2475/MDR)	MIC (Mtb R506/XDR)	MIC (Mtb TF274/XDR)
Cc1nc2ccc(Cl)cn2c1C(=O)NCCCC1CCCCC1 [Compound 16, 6-chloro-N-(3-cyclohexylpropyl)-2-methylimidazo[1,2-a]pyridine-3-carboxamide]	0.09 µM (≈ 0.03 µg/mL)	0.37 µM (≈ 0.124 µg/mL)	0.75 µM (≈ 0.25 µg/mL)	1.5 µM (≈ 0.501 µg/mL)
Cc1ccc2nc(C)c(C(=O)NCCCC3CCCCC3)n2c1 [Compound 15, N-(3-cyclohexylpropyl)-2,6-dimethylimidazo[1,2-a]pyridine-3-carboxamide]	0.05 µM (≈ 0.0157 µg/mL)	0.2 µM (≈ 0.0627 µg/mL)	0.1 µM (≈ 0.0313 µg/mL)	0.2 µM (≈ 0.0627 µg/mL)
